Experimental data reported in US11802127B2, “3,4-dihydro-2,7-naphthyridine-1,6(2H,7H)-diones as MEK inhibitors” (Pfizer Inc., priority 2021, dated 2023).

Columns and labels:
[1] = MDR1 LLC-PK1 and BCRP MDCKII Permeability Assay: permeability coefficient (Papp); format: in vitro ADME; conditions: MDCK, test article 1 μM, 37° C.
In short: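 Bidirectional (A to B, B to A) transport of test article (1 μM, 1% organic) across MDR1-transfected LLC-PK1 or BCRP-transfected MDCKII (canine P-gp knockout) monolayers, 2 h at 37° C., 5% CO2, in triplicate. Lucifer yellow monitored monolayer integrity. Concentrations measured by LC-MS/MS against labetalol internal standard.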

[2] = PK (Free Brain-to-Free Plasma Ratio) (Mouse); format: in vivo; conditions: brain and plasma, male CD-1 mice, oral gavage 10 mg/kg, sampling 2, 4, 8, 12 and 24 hours, (B/P)*(Bfu/Pfu)
Procedure: The ability of representative compounds to penetrate the BBB in mice was determined by evaluating the unbound brain-to-unbound plasma (also referred to as free brain-to-free plasma) concentration ratio in male CD-1 mice.
Brain compound levels were generated from oral mouse PK dosing with typical sampling times of 2, 4, 8, 12 and 24 hours post oral gavage dosing at 10 mg/kg. Brain samples were stored at −20±5° C. prior to analysis. Concentrations of test compound in mouse brain homogenate were determined by liquid chromatography tandem mass spectrometry (LC-MS/MS) following protein precipitation with acetonitrile. A 12-point calibration curve, ranging from 0.5 to 10,000 ng/mL, was prepared in duplicate. A solution of 400 μg/mL of test compound in dimethyl sulfoxide (DMSO) was serially diluted (3-fold) in 100% DMSO, and then 2.5 μL of each standard solution was added to 100 μL of naïve male CD-1 mice brain homogenate. To mimic the extraction in the standard curve, 2.5 μL of DMSO was added to all test samples. Both calibration and test brain homogenate samples were spiked with 10 μL of an IS (1 μg/mL of a structural analog). Brain homogenate was generated by adding 0.75 mL of 4:1 water:MeOH to each brain sample followed by homogenization for 1 minute with bead beater tubes a 6 m/s using an MP Fast Prep-24®. Proteins were precipitated from 100 μL of brain homogenate sample by the addition of 300 μL of acetonitrile. Samples were vortex-mixed for 5 minutes and spun in an Allegra X-12R centrifuge (Beckman Coulter, Fullerton, CA; SX4750A rotor) for 15 min at about 1,500×g at 4° C. A 100 μL aliquot of each supernatant was transferred via a 550 μL Personal Pipettor (Apricot Designs, Monrovia, CA) to 96-well plates and diluted 1:1 with HPLC grade water. The resulting plates were sealed with aluminum for LC-MS/MS analysis.
Brain-to-plasma ratios were calculated using the concentration of compound measured in the brain divided by the concentration of compound measured in the plasma. Brain-to-plasma ratios were always generated from a single animal and time point. Free brain-to-free plasma ratios were calculated by multiplying the brain-to-plasma ratio by the in vitro brain homogenate free fraction divided by the in vitro plasma free fraction using the following equation: (B/P)*(Bfu/Pfu).

P-gp (MDR1) = molecular target: T1, P-gp (MDR1) (Homo sapiens, UniProt P08183); test: Efflux ratio in MDR1 transfected LLC-PK1 cells; format: in vitro ADME; conditions: pig, Papp(B−A)/Papp(A−B)
T1 construct: expressed in transfected cells; host or cells: LLC-PK1 (porcine kidney) cells transfected with MDR1
T1 sequence (P08183 whole entry): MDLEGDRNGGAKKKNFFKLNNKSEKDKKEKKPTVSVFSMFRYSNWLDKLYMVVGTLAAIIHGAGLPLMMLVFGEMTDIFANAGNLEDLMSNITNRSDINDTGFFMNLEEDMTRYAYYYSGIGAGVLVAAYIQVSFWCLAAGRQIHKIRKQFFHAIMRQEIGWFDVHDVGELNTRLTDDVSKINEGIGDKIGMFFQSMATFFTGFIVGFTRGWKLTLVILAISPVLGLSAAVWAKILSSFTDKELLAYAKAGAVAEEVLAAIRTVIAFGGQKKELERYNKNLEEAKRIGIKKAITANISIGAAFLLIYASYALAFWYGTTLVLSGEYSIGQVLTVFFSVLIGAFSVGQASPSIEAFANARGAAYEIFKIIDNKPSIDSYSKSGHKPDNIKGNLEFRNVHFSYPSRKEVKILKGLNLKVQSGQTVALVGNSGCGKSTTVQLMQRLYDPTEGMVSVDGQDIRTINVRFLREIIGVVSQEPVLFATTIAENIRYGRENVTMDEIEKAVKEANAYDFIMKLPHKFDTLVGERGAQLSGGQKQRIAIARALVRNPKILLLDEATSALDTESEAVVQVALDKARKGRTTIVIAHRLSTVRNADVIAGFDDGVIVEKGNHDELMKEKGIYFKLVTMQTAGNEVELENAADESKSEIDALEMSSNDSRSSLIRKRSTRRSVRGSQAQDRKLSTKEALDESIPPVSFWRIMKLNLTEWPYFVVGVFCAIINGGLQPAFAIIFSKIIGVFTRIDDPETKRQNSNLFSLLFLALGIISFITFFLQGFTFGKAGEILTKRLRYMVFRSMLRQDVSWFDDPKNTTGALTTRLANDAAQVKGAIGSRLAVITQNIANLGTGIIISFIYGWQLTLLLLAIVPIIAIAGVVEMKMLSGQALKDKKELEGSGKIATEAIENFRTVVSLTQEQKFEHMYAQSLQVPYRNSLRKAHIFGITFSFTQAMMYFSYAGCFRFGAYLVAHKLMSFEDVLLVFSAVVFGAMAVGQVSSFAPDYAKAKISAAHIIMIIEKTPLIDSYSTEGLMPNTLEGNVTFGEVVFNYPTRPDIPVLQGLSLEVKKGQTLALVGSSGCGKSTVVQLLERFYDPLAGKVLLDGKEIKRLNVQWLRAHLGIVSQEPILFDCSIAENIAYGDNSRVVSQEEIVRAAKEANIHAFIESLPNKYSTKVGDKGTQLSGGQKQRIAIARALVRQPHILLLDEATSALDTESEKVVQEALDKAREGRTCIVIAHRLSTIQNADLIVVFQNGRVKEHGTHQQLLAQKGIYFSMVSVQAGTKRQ
In short: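 LLC-PK1 cells transfected with MDR1, test article at 1 μM (1% organic), transport measured A→B and B→A over 2 h at 37° C. Monolayer integrity checked with lucifer yellow, compound quantified by LC-MS/MS. Efflux ratio = Papp(B−A)/Papp(A−B).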

Papp at 2 h, 1 μM [1] [×10⁻⁶ cm/s] | Kp,uu (unbound brain-to-unbound plasma ratio) [2] | efflux ratio at 2 h, 1 μM (P-gp (MDR1)) | Structure (SMILES)
32.1 | 0.88 to 1.26 | 3.4 | CSc1ccc(Nc2c3c(cc(=O)n2C)CCN(OCCO)C3=O)c(F)c1 [Example 6, 8-((2-fluoro-4-(methylthio)phenyl)amino)-2-(2-hydroxyethoxy)-7-methyl-3,4-dihydro-2,7-naphthyridine-1,6(2H,7H)-dione]
34.5 | 0.62 to 1.06 | 5.4 | Cn1c(Nc2ccc(Br)cc2F)c2c(cc1=O)CCN(OCCO)C2=O [Example 7, 8-((4-bromo-2-fluorophenyl)amino)-2-(2-hydroxyethoxy)-7-methyl-3,4-dihydro-2,7-naphthyridine-1,6(2H,7H)-dione]
34.2 | 1.01 to 16.1 | 7.1 | Cn1c(Nc2ccc(I)cc2F)c2c(cc1=O)CCN(OCCO)C2=O [Example 8, 8-((2-fluoro-4-iodophenol)amino)-2-(2-hydroxyethoxy)-7-methyl-3,4-dihydro-2,7-naphthyridine-1,6(2H,7H)-dione]
31.1 | 0.57 to 1.58 | 2.7 | CCc1ccc(Nc2c3c(cc(=O)n2C)CCN(OCCO)C3=O)c(F)c1 [Example 14, 8-((4-ethyl-2-fluorophenyl)amino)-2-(2-hydroxyethoxy)-7-methyl-3,4-dihydro-2,7-naphthyridine-1,6(2H,7H)-dione]
24.6 | 0.33 to 2.92 | 6.2 | Cn1c(Nc2ccc(OC(F)F)cc2F)c2c(cc1=O)CCN(OCCO)C2=O [Example 22, 8-((4-(difluoromethoxy)-2-fluorophenyl)amino)-2-(2-hydroxyethoxy)-7-methyl-3,4-dihydro-2,7-naphthyridine-1,6(2H,7H)-dione]
31.1 | 0.83 to 2.09 | 2.9 | Cc1c2c(c(Nc3ccc(Br)cc3F)n(C)c1=O)C(=O)N(OCCO)CC2 [Example 36, 8-((4-bromo-2-fluorophenyl)amino)-2-(2-hydroxyethoxy)-5,7-dimethyl-3,4-dihydro-2,7-naphthyridine-1,6(2H,7H)-dione]
